Data as given in patent US6743794B2, “Methods and compounds for inhibiting MRP1” (Eli Lilly and Company, priority 1999, dated 2004).

How the values were obtained:
[1] = molecular target: T1, MRP1 (Homo sapiens, UniProt P33527); experiment: Assay for reversal of MRP1-mediated doxorubicin resistance (HL60/Adr cells, alamarBlue viability); assay type: cell-based; conditions: oncolytic alone at the tested concentration, no test compound
T1 construct: HL60/Adr and HL60/Vinc are continuous cell lines, which were selected for doxorubicin and vincristine resistance respectively; endogenous in cells; host or cells: HL60/Adr (doxorubicin-selected HL60)
Experimental: (§1) The biological activity of the compounds of the present invention was evaluated employing an initial screening assay which rapidly and accurately measured the activity of the tested compound in inhibiting MRP1 or MDR1. Assays useful for evaluating this reversing capability are well known in the art. See, e.g., T. McGrath, et al., Biochemical Pharmacology, 38:3611, 1989; D. Marquardt and M. S. Center, Cancer Research, 52:3157, 1992; D. Marquardt, et al., Cancer Research, 50:1426, 1990; and Cole, et. al., Cancer Research, 54: 5902-5910, 1994.
(§2) Assay for Reversal of MRP1-Mediated Doxorubicin Resistance and MDR1-Mediated Vincristine Resistance
(§3) HL60/Adr and HL60/Vinc are continuous cell lines, which were selected for doxorubicin and vincristine resistance respectively by culturing HL60, a human acute myeloblastic leukemia cell line, in increasing concentrations of doxorubicin or vincristine until a highly resistant variant was attained.
(§4) HL60/Adr and HL60/Vinc cells were grown in RPMI 1640 (Gibco) containing 10% fetal bovine serum (FBS) and 50 μg/ml GENTAMICIN™ (Sigma). Cells were harvested; washed twice with assay medium (same as culture media); counted; and diluted to 1×10^5 cells/ml in assay medium. One hundred microliters of cells were aliquoted into wells of a 96 well tissue culture plate. […]

[2] = molecular target: T2, MDR1 (Homo sapiens, UniProt P08183); experiment: Assay for reversal of MDR1-mediated vincristine resistance (HL60/Vinc cells, alamarBlue viability); assay type: cell-based; conditions: oncolytic alone at the tested concentration, no test compound
T2 construct: HL60/Adr and HL60/Vinc are continuous cell lines, which were selected for doxorubicin and vincristine resistance respectively; endogenous in cells; host or cells: HL60/Vinc (vincristine-selected HL60)
Experimental: as §1, §2, §3, §4

T2 sequence (P08183 whole entry): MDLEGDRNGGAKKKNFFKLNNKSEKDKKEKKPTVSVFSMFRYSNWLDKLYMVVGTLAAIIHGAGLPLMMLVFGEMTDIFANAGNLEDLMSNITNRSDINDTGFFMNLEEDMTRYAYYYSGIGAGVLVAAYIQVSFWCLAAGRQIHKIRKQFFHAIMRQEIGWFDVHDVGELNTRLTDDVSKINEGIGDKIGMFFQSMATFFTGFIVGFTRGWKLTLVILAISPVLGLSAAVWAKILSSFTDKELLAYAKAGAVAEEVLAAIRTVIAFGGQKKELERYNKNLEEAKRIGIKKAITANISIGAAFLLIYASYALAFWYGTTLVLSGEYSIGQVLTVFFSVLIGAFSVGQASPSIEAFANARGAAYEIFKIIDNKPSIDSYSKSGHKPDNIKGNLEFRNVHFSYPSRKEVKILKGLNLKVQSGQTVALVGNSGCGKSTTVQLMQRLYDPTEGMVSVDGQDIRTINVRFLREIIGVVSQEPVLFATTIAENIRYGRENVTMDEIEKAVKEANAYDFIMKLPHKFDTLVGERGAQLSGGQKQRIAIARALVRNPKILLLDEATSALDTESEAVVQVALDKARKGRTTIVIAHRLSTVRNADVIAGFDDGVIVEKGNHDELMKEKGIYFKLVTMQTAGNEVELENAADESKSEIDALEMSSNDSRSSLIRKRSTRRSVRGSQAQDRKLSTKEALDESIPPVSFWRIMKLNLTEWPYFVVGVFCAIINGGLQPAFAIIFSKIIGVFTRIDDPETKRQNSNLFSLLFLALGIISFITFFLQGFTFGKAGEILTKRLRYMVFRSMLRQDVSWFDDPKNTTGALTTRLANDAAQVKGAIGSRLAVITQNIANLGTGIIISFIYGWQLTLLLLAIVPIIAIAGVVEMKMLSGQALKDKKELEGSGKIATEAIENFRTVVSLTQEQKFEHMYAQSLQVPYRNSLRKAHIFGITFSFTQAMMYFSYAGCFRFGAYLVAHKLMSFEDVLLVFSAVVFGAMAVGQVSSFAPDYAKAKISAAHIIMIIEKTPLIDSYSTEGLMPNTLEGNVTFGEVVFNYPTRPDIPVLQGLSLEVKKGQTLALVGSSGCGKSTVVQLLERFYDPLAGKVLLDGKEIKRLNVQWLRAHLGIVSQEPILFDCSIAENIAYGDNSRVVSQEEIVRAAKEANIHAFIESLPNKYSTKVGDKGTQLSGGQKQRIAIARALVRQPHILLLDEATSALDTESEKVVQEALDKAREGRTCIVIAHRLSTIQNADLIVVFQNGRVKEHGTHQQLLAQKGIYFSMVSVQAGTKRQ
T1 sequence (P33527 whole entry): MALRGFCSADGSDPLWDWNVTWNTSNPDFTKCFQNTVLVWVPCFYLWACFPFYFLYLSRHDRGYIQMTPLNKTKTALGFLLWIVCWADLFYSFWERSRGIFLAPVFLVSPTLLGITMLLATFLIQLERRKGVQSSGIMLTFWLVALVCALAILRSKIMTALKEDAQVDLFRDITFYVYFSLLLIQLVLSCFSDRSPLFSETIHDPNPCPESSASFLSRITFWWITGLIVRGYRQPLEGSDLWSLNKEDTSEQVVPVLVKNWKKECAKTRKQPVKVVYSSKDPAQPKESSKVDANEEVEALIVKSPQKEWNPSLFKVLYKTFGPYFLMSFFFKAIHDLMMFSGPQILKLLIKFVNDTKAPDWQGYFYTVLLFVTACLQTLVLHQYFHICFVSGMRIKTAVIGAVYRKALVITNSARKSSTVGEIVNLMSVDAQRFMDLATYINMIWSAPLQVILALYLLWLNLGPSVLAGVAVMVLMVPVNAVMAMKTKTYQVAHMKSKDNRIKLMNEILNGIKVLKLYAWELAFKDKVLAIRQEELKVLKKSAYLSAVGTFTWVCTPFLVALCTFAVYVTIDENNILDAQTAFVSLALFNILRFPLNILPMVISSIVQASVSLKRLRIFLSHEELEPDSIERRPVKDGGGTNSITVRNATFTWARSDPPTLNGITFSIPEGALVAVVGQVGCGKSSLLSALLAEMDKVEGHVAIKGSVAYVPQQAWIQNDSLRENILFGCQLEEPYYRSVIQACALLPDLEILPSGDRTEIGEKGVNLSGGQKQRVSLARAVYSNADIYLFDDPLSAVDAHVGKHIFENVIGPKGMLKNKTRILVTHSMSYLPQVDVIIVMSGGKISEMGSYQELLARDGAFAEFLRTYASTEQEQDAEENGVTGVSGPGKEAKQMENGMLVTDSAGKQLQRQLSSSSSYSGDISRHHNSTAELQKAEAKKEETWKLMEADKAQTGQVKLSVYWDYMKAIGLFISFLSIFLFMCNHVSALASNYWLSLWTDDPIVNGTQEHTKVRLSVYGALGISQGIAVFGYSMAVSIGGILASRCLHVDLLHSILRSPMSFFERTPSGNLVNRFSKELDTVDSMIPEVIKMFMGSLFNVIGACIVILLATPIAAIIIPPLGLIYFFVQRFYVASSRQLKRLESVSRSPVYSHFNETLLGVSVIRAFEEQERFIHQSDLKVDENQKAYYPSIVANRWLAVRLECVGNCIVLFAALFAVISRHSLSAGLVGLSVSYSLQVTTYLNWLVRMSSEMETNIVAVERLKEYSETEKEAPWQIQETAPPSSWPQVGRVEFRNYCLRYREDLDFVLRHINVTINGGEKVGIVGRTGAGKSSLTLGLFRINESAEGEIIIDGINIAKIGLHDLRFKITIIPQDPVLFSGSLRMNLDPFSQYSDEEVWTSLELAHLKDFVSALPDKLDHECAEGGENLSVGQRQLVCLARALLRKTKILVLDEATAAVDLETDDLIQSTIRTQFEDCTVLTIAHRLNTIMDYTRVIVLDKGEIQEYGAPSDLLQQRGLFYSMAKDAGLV

## COc1cccc2c1C(=O)c1c(O)c3c(c(O)c1C2=O)C[C@@](O)(C(=O)CO)C[C@@H]3O[C@H]1C[C@H](N)[C@H](O)[C@H](C)O1 [doxorubicin]
[1]
  inhibition of cell growth by the oncolytic alone: minimally inhibits
[2]
  inhibition of cell growth by the oncolytic alone: minimally inhibits
